# Where “and” joins values, the source holds several entries; their conditions need not be identical. Equal values may be shown once. Read-outs that look alike come from different tables or passages of the source.
# Columns and labels:
# [1] = 100 nM in water
# Description: The pH dependence of phenol 5 was also investigated. Phenol 5 was dissolved in water to a concentration of 100 nM. This solution (100 mL) was titrated with HCl and NaOH. The pH was measured after each addition before measuring the fluorescence using a Horiba FluoroMax3 fluorescence spectrometer. Fluorescence was measured using 1 nm slit widths with an excitation wavelength of 496 nm and an emission wavelength of 510 nm, the results of which are shown in FIG. 23 and Table 15.
# [2] = Fluorescence intensity of selenide 1 and phenol 5; type: physicochemical; settings: pH 7
# Description: All fluorescence measurements (excitation 490 nm, emission 510-570 nm) were carried out using a Promega Biosystems Modulus II Microplate Reader or a HoribaMax Fluorometer unless otherwise stated. Data analysis was performed using GraphPad Prism 8.
# The fluorescence intensity of selenide 1 and phenol 5 were investigated. Solutions containing ultrapure water (681 μL), […] phosphate pH 7 buffer (31 μL), DMSO (28.1 μL), and 80 μM 1 or phenol 5 in DMSO (9.4 μL) were made. Aliquots of these solutions (200 μL) were transferred to the wells of a black 96-well plate and the fluorescence was measured. As evident from FIG. 10 and Table 1, the difference in fluorescence intensity of probe 1 and phenol 5, is 27-fold. Generally, O-alkylation of Pittsburgh Green suppresses the fluorescence by 200-400 fold. The somewhat modest fluorescence increase in the current system is attributed to the trace contamination of the fluorescent compound 5 during the purification of the nonfluorescent probe 1.
# RAW cells = experiment: Imaging of endogenous H2O2 upon ionomycin stimulation in RAW cells; type: cell-based; settings: 5 μM probe
# Excerpt: After detecting exogenously added H2O2 in cells, the focus shifted to more biologically relevant, endogenous H2O2. It was attempted to monitor endogenous H2O2 production upon stimulation with ionomycin in RAW cells. […] In contrast, with probe 1, a significant response was observed within 30 s after the addition of ionomycin relative to the baseline fluorescence (FIG. 24B-C) and peaked at 48 s.
smiles,measurement,setting,value
O=c1ccc2c(-c3ccccc3CO)c3ccc(O)cc3oc-2c1 [Compound 5],Fluorescence Intensity,[1]; pH 3.99,920
same,Fluorescence Intensity,[1]; pH 4.20,930
same,Fluorescence Intensity,[1]; pH 4.33,"1,070"
same,Fluorescence Intensity,[1]; pH 4.48,"1,450"
same,Fluorescence Intensity,[1]; pH 4.65,"1,440"
same,Fluorescence Intensity,[1]; pH 4.77,"1,670"
same,Fluorescence Intensity,[1]; pH 5.07,"2,790"
same,Fluorescence Intensity,[1]; pH 5.51,"5,280"
same,Fluorescence Intensity,[1]; pH 5.69,"7,130"
same,Fluorescence Intensity,[1]; pH 5.90,"10,250"
same,Fluorescence Intensity,[1]; pH 6.30,"18,790"
same,Fluorescence Intensity,[1]; pH 6.38,"18,720"
same,Fluorescence Intensity,[1]; pH 6.48,"22,820"
same,Fluorescence Intensity,[1]; pH 6.80,"27,620"
same,Fluorescence Intensity,[1]; pH 6.90,"31,730"
same,Fluorescence Intensity,[1]; pH 7.11,"34,510"
same,Fluorescence Intensity,[1]; pH 7.18,"35,740"
same,Fluorescence Intensity,[1]; pH 7.69,"39,880"
same,Fluorescence Intensity,[1]; pH 8.31,"41,950"
same,Fluorescence Intensity,[1]; pH 8.63,"42,930"
same,Fluorescence Intensity,[1]; pH 8.88,"44,240"
same,Fluorescence Intensity,[1]; pH 9.00,"43,280"
same,Fluorescence Intensity,[1]; pH 9.09,"43,110"
same,Fluorescence Intensity,[1]; pH 9.15,"43,140"
same,Fluorescence Intensity,[1]; pH 9.32,"43,550"
same,Fluorescence Intensity,[1]; pH 9.40,"43,850"
same,Fluorescence Intensity,[1]; pH 9.49,"43,340"
same,Fluorescence Intensity,[1]; pH 9.56,"45,080"
same,Fluorescence Intensity,[1]; pH 9.61,"44,640"
same,Fluorescence Intensity,[1]; pH 9.71,"43,930"
same,Fluorescence Intensity,[1]; pH 9.75,"42,610"
same,Fluorescence Intensity,[1]; pH 9.83,"44,070"
same,Fluorescence Intensity,[1]; pH 9.92,"43,670"
same,Fluorescence Intensity,[1]; pH 10.01,"41,900"
same,Fluorescence Intensity,[1]; pH 10.10,"42,170"
same,Fluorescence Intensity,[1]; pH 10.22,"42,800"
same,Fluorescence Intensity,[1]; pH 10.33,"42,170"
same,Fluorescence Intensity,[1]; pH 10.43,"42,570"
same,Fluorescence Intensity,[1]; pH 10.48,"42,410"
same,Fluorescence Intensity,[1]; pH 10.59,"40,450"
same,Fluorescence Intensity,[1]; pH 10.68,"41,370"
same,Fluorescence Intensity,[1]; pH 10.75,"40,520"
same,Fluorescence Intensity,[1]; pH 10.85,"40,140"
same,Fluorescence Intensity,[1]; pH 10.91,"38,790"
same,Fluorescence Intensity,[2],"244,687 and 247,204 and 246,848"
"CC(=O)Oc1cc2c(cc1Cl)C(c1ccccc1C(=O)O)c1cc(Cl)c(OC(C)=O)cc1O2 [dihydrodichlorofluorescein acetate, reference compound]",fluorescence response upon ionomycin addition,RAW cells,fluorescence increase could hardly be observed
